Test results reported in BindingDB's records for doi:10.1021/jm070130j (Johnson & Johnson Pharmaceutical, 2007).

Each compound was assayed against Free fatty acid receptor 1 (Homo sapiens, UniProt O14842) (assay: GPR40 FDSS Assay). Conditions: 37 °C.
Free fatty acid receptor 1, sequence (O14842 whole entry): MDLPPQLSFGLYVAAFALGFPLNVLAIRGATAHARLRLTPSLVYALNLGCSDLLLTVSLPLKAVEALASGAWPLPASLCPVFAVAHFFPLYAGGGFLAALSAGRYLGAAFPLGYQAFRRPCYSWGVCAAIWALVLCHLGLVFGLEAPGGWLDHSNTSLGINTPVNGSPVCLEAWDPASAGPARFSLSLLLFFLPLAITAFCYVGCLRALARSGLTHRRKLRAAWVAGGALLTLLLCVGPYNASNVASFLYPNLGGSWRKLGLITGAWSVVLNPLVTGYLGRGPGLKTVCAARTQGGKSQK
Method: Human embryonic kidney (HEK293) cells expressing human GPR40 receptors were grown in Dulbecco modified Eagles medium (DMEM)/F12 media supplemented with 10% fetal FBS and glutamine. Changes in ligand-induced calcium-dependent intracellular fluorescence were measured with a fluorometric plate reader (FDSS; Hamamatsu Corp., Bridgewater, NJ).
`CCCCOc1ccc(C(CC(=O)O)c2cccs2)cc1` (stereo not given) [3-(4-butoxyphenyl)-3-(thiophen-2-yl)propanoic acid] was tested, and the EC50 was 1290 nM. In the case of `CCCCOc1ccc(C(CC(=O)O)c2ccc(C(F)(F)F)cc2)cc1` (stereo not given) [3-(4-butoxyphenyl)-3-[4-(trifluoromethyl)phenyl]propanoic acid], the EC50 is reported as greater than 10000 nM. `CCCCOc1ccc(C(CC(=O)O)c2ccccc2)cc1` (stereo not given) [3-(4-butoxyphenyl)-3-phenylpropanoic acid] showed an EC50 of 1200 nM. For `CCCCCOc1cccc(C(CC(=O)O)c2ccccc2)c1` (stereo not given) [3-[3-(pentyloxy)phenyl]-3-phenylpropanoic acid], the EC50 was greater than 10000 nM. `CCC(C)COc1ccc(C(CC(=O)O)c2ccccc2)cc1` (stereo not given) [3-[4-(2-methylbutoxy)phenyl]-3-phenylpropanoic acid] was tested, and the EC50 was 300 nM. Work on `CC(C)CCOc1ccc(C(CC(=O)O)c2ccccc2)cc1` (stereo not given) [3-[4-(3-methylbutoxy)phenyl]-3-phenylpropanoic acid] yielded an EC50 of 1860 nM. `CCCCCOc1ccc(C(CC(=O)O)c2ccccc2)cc1` (stereo not given) [3-[4-(pentyloxy)phenyl]-3-phenylpropanoic acid] gave an EC50 of 2970 nM. In the case of `CCCOc1ccc(C(CC(=O)O)c2ccccc2)cc1` (stereo not given) [3-phenyl-3-(4-propoxyphenyl)propanoic acid], the EC50 is reported as 4800 nM. `C/C=C/COc1ccc(C(CC(=O)O)c2ccccc2)cc1` (stereo not given) [3-{4-[(2E)-but-2-en-1-yloxy]phenyl}-3-phenylpropanoic acid] was tested, and the EC50 was 2710 nM. Work on `CCCCOc1ccc(C(CCCC(=O)O)c2ccccc2)cc1` (stereo not given) [5-(4-butoxyphenyl)-5-phenylpentanoic acid] yielded an EC50 greater than 10000 nM.
